Laboratory results: patent US20240190874A1, “SMALL MOLECULE DEGRADERS OF ANDROGEN RECEPTOR” (THE REGENTS OF THE UNIVERSITY OF MICHIGAN, priority 2021, published 2024)
pIC50: −log10 of the molar value.

target: T1, AR (Homo sapiens, UniProt P10275); test: Degradation of AR in VCaP cells; assay type: cell-based; settings: VCaP cells
T1 construct: Degradation of AR; Cellular potency; host or cells: VCaP cells
T1 sequence (P10275 1-920): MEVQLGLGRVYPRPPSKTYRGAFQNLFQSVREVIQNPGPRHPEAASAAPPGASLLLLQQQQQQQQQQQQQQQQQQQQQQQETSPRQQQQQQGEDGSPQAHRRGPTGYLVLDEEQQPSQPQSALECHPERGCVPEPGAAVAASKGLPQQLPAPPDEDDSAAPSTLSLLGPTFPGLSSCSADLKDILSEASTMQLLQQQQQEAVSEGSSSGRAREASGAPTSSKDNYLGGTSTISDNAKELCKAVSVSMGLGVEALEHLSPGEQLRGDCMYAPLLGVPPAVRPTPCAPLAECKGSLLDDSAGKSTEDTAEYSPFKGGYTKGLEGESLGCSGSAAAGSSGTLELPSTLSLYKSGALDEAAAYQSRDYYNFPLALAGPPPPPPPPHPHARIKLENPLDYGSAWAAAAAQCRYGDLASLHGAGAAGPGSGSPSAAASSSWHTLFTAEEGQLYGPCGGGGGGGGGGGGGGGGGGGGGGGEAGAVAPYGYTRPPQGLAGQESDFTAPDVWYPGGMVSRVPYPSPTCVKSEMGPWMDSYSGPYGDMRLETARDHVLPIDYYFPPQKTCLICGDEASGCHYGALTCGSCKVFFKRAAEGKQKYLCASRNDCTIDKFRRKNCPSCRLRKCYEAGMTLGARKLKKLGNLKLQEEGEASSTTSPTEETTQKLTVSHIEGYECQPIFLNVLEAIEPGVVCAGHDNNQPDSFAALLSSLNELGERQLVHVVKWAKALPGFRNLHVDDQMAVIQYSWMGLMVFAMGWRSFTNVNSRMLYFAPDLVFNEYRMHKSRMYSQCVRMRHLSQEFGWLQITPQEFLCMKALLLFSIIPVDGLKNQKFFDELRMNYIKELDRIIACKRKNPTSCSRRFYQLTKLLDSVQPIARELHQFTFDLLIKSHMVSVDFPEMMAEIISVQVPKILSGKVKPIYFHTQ
Procedure: (§1) Biological Assays. LNCaP and VCaP cells used were purchased from American Type Culture Collection (ATCC). LNCaP were grown in RPMI 1640 (Invitrogen) and VCaP cells were grown in DMEM with Glutamax (Invitrogen). All of the cells were supplemented with 10% fetal bovine serum (Invitrogen) at 37° C. in a humidified 5% CO2 incubator.

For C[C@H]1CC2(CCN(c3ccc(OC4CCN(C5CN(c6cc7c(cc6F)C(=O)N(C6CCC(=O)NC6=O)C7=O)C5)CC4)nc3)CC2)CN1c1ccc(C#N)c(Cl)c1 (stereo partly shown) [compound 133], which DC50 is on record?
Its DC50 is < 1 nM.

C[C@H]1CC2(CCN(c3ccc(OC4CCN(C5CN(c6cc7c(cc6F)C(=O)N(C6CCC(=O)NC6=O)C7=O)C5)CC4)nn3)CC2)CN1c1ccc(C#N)c(Cl)c1 (stereo partly shown) [compound 134] was tested. Which DC50 did it give?
The DC50 was < 1 nM.

C[C@H]1CC2(CCN(c3ccc(C(=O)N4CCN(C5CN(c6ccc7c(c6)C(=O)N(C6CCC(=O)NC6=O)C7=O)C5)CC4)s3)CC2)CN1c1ccc(C#N)c(Cl)c1 (stereo partly shown) [compound 135] was tested. Which DC50 did it give?
The DC50 was < 10 nM.

Which DC50 does the source give for C[C@H]1CC2(CCN(c3ncc(C(=O)N4CCN(C5CN(c6ccc7c(c6)C(=O)N(C6CCC(=O)NC6=O)C7=O)C5)CC4)s3)CC2)CN1c1ccc(C#N)c(Cl)c1 (stereo partly shown) [compound 136] here?
Its DC50 is < 1 nM.

For C[C@H]1CC2(CCN(c3cnc(C(=O)N4CCN(C5CN(c6ccc7c(c6)C(=O)N(C6CCC(=O)NC6=O)C7=O)C5)CC4)s3)CC2)CN1c1ccc(C#N)c(Cl)c1 (stereo partly shown) [compound 137], which DC50 is on record?
The DC50 was < 10 nM.

How did the DC50 turn out when C[C@H]1CC2(CCN(c3ccc(C(=O)N4CCC(N5Cc6cc7c(cc6C5)C(=O)N(C5CCC(=O)NC5=O)C7=O)CC4)s3)CC2)CN1c1ccc(C#N)c(Cl)c1 (stereo partly shown) [compound 138] was run?
Its DC50 is < 10 nM.

C[C@H]1CC2(CCN(c3ncc(C(=O)N4CCC(N5Cc6cc7c(cc6C5)C(=O)N(C5CCC(=O)NC5=O)C7=O)CC4)s3)CC2)CN1c1ccc(C#N)c(Cl)c1 (stereo partly shown) [compound 139] was tested. Which DC50 did it give?
The DC50 was < 10 nM.

Which DC50 does the source give for C[C@H]1CC2(CCN(c3ccc(S(=O)(=O)C4CN(C(=O)CN5Cc6cc7c(cc6C5)C(=O)N(C5CCC(=O)NC5=O)C7=O)C4)cc3)CC2)CN1c1ccc(C#N)c(Cl)c1 (stereo partly shown) [compound 149] here?
Its DC50 is < 1 nM.

same assay, conditions: VCaP, VCaP cells

For C[C@H]1CC2(CCN(c3ccc(OC4CCN(C5CN(c6cc7c(cc6F)C(=O)N(C6CCC(=O)NC6=O)C7=O)C5)CC4)nc3)CC2)CN1c1ccc(C#N)c(Cl)c1 (stereo partly shown) [compound 133], which Dmax is on record?
The Dmax was > 90%.

How did the Dmax turn out when C[C@H]1CC2(CCN(c3ccc(OC4CCN(C5CN(c6cc7c(cc6F)C(=O)N(C6CCC(=O)NC6=O)C7=O)C5)CC4)nn3)CC2)CN1c1ccc(C#N)c(Cl)c1 (stereo partly shown) [compound 134] was run?
Its Dmax is > 90%.

With C[C@H]1CC2(CCN(c3ccc(C(=O)N4CCN(C5CN(c6ccc7c(c6)C(=O)N(C6CCC(=O)NC6=O)C7=O)C5)CC4)s3)CC2)CN1c1ccc(C#N)c(Cl)c1 (stereo partly shown) [compound 135] as the compound, how does the Dmax read?
The Dmax was 70 to 90%.

C[C@H]1CC2(CCN(c3ncc(C(=O)N4CCN(C5CN(c6ccc7c(c6)C(=O)N(C6CCC(=O)NC6=O)C7=O)C5)CC4)s3)CC2)CN1c1ccc(C#N)c(Cl)c1 (stereo partly shown) [compound 136] was tested. Which Dmax did it give?
Its Dmax is > 90%.

How did the Dmax turn out when C[C@H]1CC2(CCN(c3cnc(C(=O)N4CCN(C5CN(c6ccc7c(c6)C(=O)N(C6CCC(=O)NC6=O)C7=O)C5)CC4)s3)CC2)CN1c1ccc(C#N)c(Cl)c1 (stereo partly shown) [compound 137] was run?
Its Dmax is 70 to 90%.

Which Dmax does the source give for C[C@H]1CC2(CCN(c3ccc(C(=O)N4CCC(N5Cc6cc7c(cc6C5)C(=O)N(C5CCC(=O)NC5=O)C7=O)CC4)s3)CC2)CN1c1ccc(C#N)c(Cl)c1 (stereo partly shown) [compound 138] here?
Its Dmax is 70 to 90%.

C[C@H]1CC2(CCN(c3ncc(C(=O)N4CCC(N5Cc6cc7c(cc6C5)C(=O)N(C5CCC(=O)NC5=O)C7=O)CC4)s3)CC2)CN1c1ccc(C#N)c(Cl)c1 (stereo partly shown) [compound 139] was tested. Which Dmax did it give?
The Dmax was 70 to 90%.

system: VCaP cells; test: Cellular potency (IC50) in VCaP cells; assay type: cell-based; settings: Homo sapiens, VCaP
Procedure: as §1

With C[C@H]1CC2(CCN(c3ccc(OC4CCN(C5CN(c6cc7c(cc6F)C(=O)N(C6CCC(=O)NC6=O)C7=O)C5)CC4)nc3)CC2)CN1c1ccc(C#N)c(Cl)c1 (stereo partly shown) [compound 133] as the compound, how does the pIC50 read?
The pIC50 was > 8.00.

C[C@H]1CC2(CCN(c3ccc(OC4CCN(C5CN(c6cc7c(cc6F)C(=O)N(C6CCC(=O)NC6=O)C7=O)C5)CC4)nn3)CC2)CN1c1ccc(C#N)c(Cl)c1 (stereo partly shown) [compound 134] was tested. Which pIC50 did it give?
Its pIC50 is > 8.00.

C[C@H]1CC2(CCN(c3ccc(C(=O)N4CCN(C5CN(c6ccc7c(c6)C(=O)N(C6CCC(=O)NC6=O)C7=O)C5)CC4)s3)CC2)CN1c1ccc(C#N)c(Cl)c1 (stereo partly shown) [compound 135] was tested. Which pIC50 did it give?
The pIC50 was > 7.00.

C[C@H]1CC2(CCN(c3ncc(C(=O)N4CCN(C5CN(c6ccc7c(c6)C(=O)N(C6CCC(=O)NC6=O)C7=O)C5)CC4)s3)CC2)CN1c1ccc(C#N)c(Cl)c1 (stereo partly shown) [compound 136] was tested. Which pIC50 did it give?
Its pIC50 is > 8.00.

C[C@H]1CC2(CCN(c3cnc(C(=O)N4CCN(C5CN(c6ccc7c(c6)C(=O)N(C6CCC(=O)NC6=O)C7=O)C5)CC4)s3)CC2)CN1c1ccc(C#N)c(Cl)c1 (stereo partly shown) [compound 137] was tested. Which pIC50 did it give?
Its pIC50 is > 7.00.

With C[C@H]1CC2(CCN(c3ccc(C(=O)N4CCC(N5Cc6cc7c(cc6C5)C(=O)N(C5CCC(=O)NC5=O)C7=O)CC4)s3)CC2)CN1c1ccc(C#N)c(Cl)c1 (stereo partly shown) [compound 138] as the compound, how does the pIC50 read?
The pIC50 was > 7.00.

With C[C@H]1CC2(CCN(c3ncc(C(=O)N4CCC(N5Cc6cc7c(cc6C5)C(=O)N(C5CCC(=O)NC5=O)C7=O)CC4)s3)CC2)CN1c1ccc(C#N)c(Cl)c1 (stereo partly shown) [compound 139] as the compound, how does the pIC50 read?
The pIC50 was > 7.00.

With C[C@H]1CC2(CCN(c3ccc(S(=O)(=O)C4CN(C(=O)CN5Cc6cc7c(cc6C5)C(=O)N(C5CCC(=O)NC5=O)C7=O)C4)cc3)CC2)CN1c1ccc(C#N)c(Cl)c1 (stereo partly shown) [compound 149] as the compound, how does the pIC50 read?
Its pIC50 is > 7.00.

system: LNCaP cells; test: Cellular potency (IC50) in LNCaP cells; assay type: cell-based; settings: Homo sapiens, LNCaP
Procedure: as §1

With C[C@H]1CC2(CCN(c3ccc(OC4CCN(C5CN(c6cc7c(cc6F)C(=O)N(C6CCC(=O)NC6=O)C7=O)C5)CC4)nc3)CC2)CN1c1ccc(C#N)c(Cl)c1 (stereo partly shown) [compound 133] as the compound, how does the pIC50 read?
Its pIC50 is > 8.00.

How did the pIC50 turn out when C[C@H]1CC2(CCN(c3ccc(OC4CCN(C5CN(c6cc7c(cc6F)C(=O)N(C6CCC(=O)NC6=O)C7=O)C5)CC4)nn3)CC2)CN1c1ccc(C#N)c(Cl)c1 (stereo partly shown) [compound 134] was run?
Its pIC50 is > 8.00.

How did the pIC50 turn out when C[C@H]1CC2(CCN(c3ccc(C(=O)N4CCN(C5CN(c6ccc7c(c6)C(=O)N(C6CCC(=O)NC6=O)C7=O)C5)CC4)s3)CC2)CN1c1ccc(C#N)c(Cl)c1 (stereo partly shown) [compound 135] was run?
The pIC50 was > 7.00.

How did the pIC50 turn out when C[C@H]1CC2(CCN(c3ncc(C(=O)N4CCN(C5CN(c6ccc7c(c6)C(=O)N(C6CCC(=O)NC6=O)C7=O)C5)CC4)s3)CC2)CN1c1ccc(C#N)c(Cl)c1 (stereo partly shown) [compound 136] was run?
Its pIC50 is > 8.00.

With C[C@H]1CC2(CCN(c3cnc(C(=O)N4CCN(C5CN(c6ccc7c(c6)C(=O)N(C6CCC(=O)NC6=O)C7=O)C5)CC4)s3)CC2)CN1c1ccc(C#N)c(Cl)c1 (stereo partly shown) [compound 137] as the compound, how does the pIC50 read?
The pIC50 was > 7.00.

How did the pIC50 turn out when C[C@H]1CC2(CCN(c3ccc(C(=O)N4CCC(N5Cc6cc7c(cc6C5)C(=O)N(C5CCC(=O)NC5=O)C7=O)CC4)s3)CC2)CN1c1ccc(C#N)c(Cl)c1 (stereo partly shown) [compound 138] was run?
Its pIC50 is > 7.00.

With C[C@H]1CC2(CCN(c3ncc(C(=O)N4CCC(N5Cc6cc7c(cc6C5)C(=O)N(C5CCC(=O)NC5=O)C7=O)CC4)s3)CC2)CN1c1ccc(C#N)c(Cl)c1 (stereo partly shown) [compound 139] as the compound, how does the pIC50 read?
The pIC50 was > 7.00.

How did the pIC50 turn out when C[C@H]1CC2(CCN(c3ccc(S(=O)(=O)C4CN(C(=O)CN5Cc6cc7c(cc6C5)C(=O)N(C5CCC(=O)NC5=O)C7=O)C4)cc3)CC2)CN1c1ccc(C#N)c(Cl)c1 (stereo partly shown) [compound 149] was run?
Its pIC50 is > 8.00.
